Assay [1] addresses T1, tyrosinase (Agaricus bisporus, UniProt C7FF04).
T1 construct: purchased Sigma-Aldrich
The assay can be described thus: Tyrosinase inhibition assay. In kind it is biochemical. As for the experimental part:
The extracts were assayed by adapting the tyrosinase inhibition method described by Shimizu et al. and modified by Manosroi et al.. […] The experiments were carried out in triplicate. For each concentration, enzyme activity was calculated as a percentage of the velocities compared to that of the assay using buffer without any inhibitor.

The nature of assay [2]: DPPH radical scavenging assay. Conditions: 100 µM. As for the experimental part: Antioxidant activity was assayed by the 1,1-diphenyl-2-picryl-hydrazyl (DPPH) radical scavenging assay. Serial dilutions of studied extracts or reference compound (Trolox) were carried out in 96-well microplates, with concentrations ranging between 0.100 μM and 100 μM in methanol. DPPH dissolved in methanol was added to the microwells, yielding a final concentration of 45 µg/mL, and the absorbance at 515 nm was measured after 30 min in the dark. In each assay, a control was prepared in which the same amount of solvent substituted the sample or standard. Percentage of antioxidant activity (% AA) was calculated as %AA = [(Abscontrol − Abssample)/Abscontrol] × 100 (1) where Abscontrol is the absorbance of the control and Abssample is the absorbance of the alga extract or standard. All assays were carried out in triplicate and the results expressed as IC50, i.e., as the concentration yielding 50% scavenging of DPPH, calculated by interpolation from the % AA vs. concentration curve.
For orientation: DPPH is a stable violet radical that fades when it is reduced.

Assay [3] relates to elastase. The assay can be described thus: Elastase inhibition assay. In kind it is biochemical. Conditions: 100 µM. As for the experimental part: The extracts were assayed by the method described by Ndlovu et al. with some modifications. In brief, 25 μL of elastase enzyme solution (0.3 U/mL), 50 μL of ten serial concentrations of the extracts or fractions (0.100–100 μM dissolved in 100 mM HEPES buffer, pH 7.5 containing no more than 2.5 % DMSO), and 125 μL HEPES buffer were mixed in a 96-well plate and incubated at room temperature for 20 min. Then, 50 μL of N-methoxysuccinyl-Ala-Ala-Pro-Val-p-nitroanilide (1 mM) was added. The enzyme activity was measured at 405 nm in the moment of substrate addition and after 40 min of incubation at 25 °C. N-Methoxysuccinyl-Ala-Ala-Pro-chloromethyl ketone at 0.100–100 μM was used as a positive control. The experiments were carried out in triplicate. For each concentration, enzyme activity was calculated as a percentage of the velocities compared to that of the assay, using buffer without any inhibitor. The IC50 value, which was the sample concentration that inhibited 50% of the enzyme activity, was determined interpolation from the % elastase inhibition vs. concentration curve.

Assay [4] relates to hyaluronidase. The assay can be described thus: Hyaluronidase inhibition assay. The class given is biochemical. Conditions: 100 µM; for increase in hyaluronidase inhibition over phytol: relative to phytol. How it is done: The assay was conducted following the Sigma protocol with minor adjustments. In a microplate, 25 µL of 5 U/mL of hyaluronidase prepared in 20 mM sodium phosphate buffer (pH 7.0) with 77 mM sodium chloride and 0.01% BSA, was pre-incubated with 50 µL of the sample in concentrations ranging from between 0.100 μM and 100 μM for 10 min at 37 °C. Subsequently, the assay was initiated by adding 25 µL hyaluronic acid (0.015 % in 300 mM sodium phosphate, pH 5.35) to the incubation mixture and incubated for an additional 30 min at 37 °C. Undigested hyaluronic acid was precipitated with 200 µL acid albumin solution composed of 0.1 % bovine serum albumin in 24 mM sodium acetate and 79 mM acetic acid (pH 3.75). After standing at room temperature for 10 min, the absorbance of the reaction mixture was measured at 600 nm. The absorbance in the absence of enzymes (blank) served as the reference value for maximum absorbance. Sodium aurothiomalate was used as a control inhibitor. Enzyme activity was verified by a control experiment conducted simultaneously, in which the enzyme was pre-incubated with buffer instead, followed by the assay procedures described above. The inhibitory activity of the test compound was determined as follows:%Inhibition = [1 − (Absblank − Abssample)/(Absblank − Abscontrol)] × 100(4) where Absblank is the absorbance of the reaction without enzyme, Abssample is the absorbance of the extract or standard compound sodium aurothiomalate, and Abscontrol is the absorbance of the enzyme without inhibitor. The IC50 value, which was the sample concentration that inhibited 50% of the enzyme activity, was determined by interpolation from the % hyaluronidase inhibition vs. concentration curve.

Assay [5] is described as follows: ABTS radical scavenging assay. Conditions: 100 µM. As for the experimental part:
The method of Re et al. was adopted to perform the ABTS radical scavenging assay. The stock solutions included a 7 mM ABTS solution (2,2′-azinobis-(3 ethylbenzothiazoline 6 sulfonic acid)) and a 2.4 mM potassium persulfate solution. The working solution was prepared by mixing the two stock solutions in equal quantities and allowing for them to react for 12–16 h at room temperature in the dark. The solution was then diluted by mixing 1 mL ABTS solution with the amount of methanol necessary to obtain an absorbance of 0.7 at 734 nm. Serial dilutions of studied extracts or reference compound (Trolox) were carried out in 96-well microplates, with concentrations ranging between 0.100 μM and 100 μM in methanol. ABTS solution was then added to the microwells, and after 8 min of incubation, the absorbance was recorded at […]. In each assay, a negative control was prepared in which the same amount of solvent substituted the sample. The percentage of antioxidant activity (% AA) was calculated as %AA = [(Abscontrol − Abssample)/Abscontrol] × 100 (2) where Abscontrol is the absorbance of ABTS radical + methanol; Abssample is the absorbance of ABTS radical + sample/standard.
All assays were carried out in triplicate and results expressed as IC50, i.e., as the concentration yielding 50% scavenging of ABTS, calculated by interpolation from the % AA vs. concentration curve.

Assay [6] relates to collagenase. The assay can be described thus: Collagenase inhibition assay. In kind it is biochemical. Conditions: 100 µM; for fold increase in collagenase inhibition over phytol: compared to phytol. As for the experimental part: An adaptation of the method of Mandl et al. was used to determine anti-collagenase activity. The following was added to 2 mL test tubes: 25 μL of collagenase solution (0.8 U/mL); 25 μL TES buffer (50 mM) with 0.36 mM calcium chloride, pH 7.4; and 50 μL of test sample or the reference compound EDTA (with concentrations ranging between 0.100 and 100 μM). The tubes were incubated in a water bath at 37 °C for 20 min. Thereafter, 50 μL FALGPA (1 mM) solution was added to the tubes and further incubated for 60 min at 37 °C. To all tubes, 200 μL of a solution containing equal volumes of a 1.6 mg/mL tin chloride (II) solution in 200 mM citrate buffer, pH 5, and 50 mg/mL ninhydrin solution in DMSO were added. All tubes were placed in a water bath (100 °C) for 5 min and left to cool to room temperature before adding 200 μL of 50% isopropanol to each tube. Contents in the tubes were then transferred to respective wells in 96-well plates. Absorbance was detected at 550 nm. EDTA was used as a control inhibitor. Percentage of collagenase inhibition was calculated as % Collagenase inhibition = [(Abscontrol − Abssample)]/Abscontrol] × 100 (5) where Abscontrol is the absorbance of buffer + collagenase; Abseample is the absorbance of buffer + collagenase + sample/standard.
All assays were carried out in triplicate and results expressed as IC50, i.e., as the concentration yielding 50% of collagenase inhibition, calculated by interpolation from the % collagenase inhibition vs. concentration curve.

Where [7] appears, read: read-out: IC50 against tyrosinase.

Structures are written as SMILES. Like-named read-outs stand apart in the source and are kept apart here.

T1 sequence (C7FF04 1-392 limits assumed): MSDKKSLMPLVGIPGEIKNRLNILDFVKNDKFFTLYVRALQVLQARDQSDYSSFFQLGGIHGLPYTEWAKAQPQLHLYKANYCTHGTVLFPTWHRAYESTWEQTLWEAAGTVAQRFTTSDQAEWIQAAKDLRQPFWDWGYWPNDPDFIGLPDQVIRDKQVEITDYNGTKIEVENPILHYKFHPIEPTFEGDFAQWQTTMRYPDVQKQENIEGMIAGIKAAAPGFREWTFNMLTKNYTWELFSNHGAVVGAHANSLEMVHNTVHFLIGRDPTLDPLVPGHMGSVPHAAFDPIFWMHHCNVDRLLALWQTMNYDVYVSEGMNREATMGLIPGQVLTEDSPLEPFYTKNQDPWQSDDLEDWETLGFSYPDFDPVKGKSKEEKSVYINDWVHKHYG

Regarding `C/C(=C\COC(=O)c1ccccc1)CCC[C@@H](C)CCC[C@@H](C)CCCC(C)C` (stereo in doubt) [Compound 1a, Phytyl benzoate], in assay [1] (setting [7]), the IC50 worked out at 34.73 ± 0.1 µM. Besides, the “Percentage of DPPH scavenging” value in assay [2] amounted to 4.75%. Also, in assay [3], the elastase inhibition stood at 43.28%. Moreover, in assay [4], the hyaluronidase inhibition is given as 37.32% and the “increase in hyaluronidase inhibition over phytol” value is 15–20%.
Regarding `C/C(=C\COC(=O)/C=C/c1ccccc1)CCC[C@@H](C)CCC[C@@H](C)CCCC(C)C` (stereo in doubt) [Compound 1f, Phytyl cinnamoate], the IC50 in assay [1] (setting [7]) came out at 95.68 ± 0.94 µM. In addition, the “Percentage of DPPH scavenging” value in assay [2] is “about 50%”. Besides, in assay [5], the “Percentage of ABTS scavenging” value was “about 50%” and the “increase in ABTS antioxidant activity compared to phytol (1)” value (“increase in ABTS antioxidant activity” below) stood at 30%.
Turning to `CC(=CCO)CCCC(C)CCCC(C)CCCC(C)C` (stereo not shown) [Compound 1, 3,7,11,15-tetramethylhexadec-2-en-1-ol, reference compound], the IC50 in assay [1] (IC50 against tyrosinase) is 77.5 ± 0.8 µM. The same molecule gave a collagenase inhibition in assay [6] of 31.89%. Further, the elastase inhibition in assay [3] was 6.4%.
Consider `COc1ccccc1C(=O)OC/C=C(\C)CCC[C@H](C)CCC[C@H](C)CCCC(C)C` [Compound 1b, Phytyl 2-methoxybenzoate], for which the IC50 in assay [1] (setting [7]) was 59.62 ± 0.51 µM. Also, the elastase inhibition result in assay [3] is “low”. The molecule also gave a hyaluronidase inhibition in assay [4] of 34.74%.
For `COc1cccc(C(=O)OC/C=C(\C)CCC[C@H](C)CCC[C@H](C)CCCC(C)C)c1` [Compound 1c, Phytyl 3-methoxybenzoate], the IC50 in assay [1] (setting [7]) worked out at 79 ± 0.87 µM. Further, the “fold increase in collagenase inhibition over phytol” value in assay [6] is listed as 1.42 fold. For the same molecule, in assay [3], the elastase inhibition entry was “low”. Further, in assay [4], the hyaluronidase inhibition amounted to 40.1% and the “increase in hyaluronidase inhibition over phytol” value came to 28%.
Consider `COc1ccc(C(=O)OC/C=C(\C)CCC[C@H](C)CCC[C@H](C)CCCC(C)C)cc1` [Compound 1d, Phytyl 4-methoxybenzoate], for which the IC50 in assay [1] (setting [7]) amounted to 27.9 µM. Moreover, in assay [6], the collagenase inhibition turned out to be 49.67% and the “fold increase in collagenase inhibition over phytol” value stood at 1.56 fold. Also, in assay [5], the “Percentage of ABTS scavenging” value is given as “about 50%” and the “increase in ABTS antioxidant activity” value is given as 30%. This molecule also showed a hyaluronidase inhibition in assay [4] of 22.54%.
On to `C/C(=C\COC(=O)c1ccc(Cl)cc1)CCC[C@H](C)CCC[C@H](C)CCCC(C)C` [Compound 1e, Phytyl 4-chlorobenzoate], for which the IC50 in assay [1] (setting [7]) was more than 100 µM. In assay [6], the “fold increase in collagenase inhibition over phytol” value is listed as 1.38 fold. In assay [2], the “Percentage of DPPH scavenging” value stood at 11.12%. In assay [3], this molecule registered an elastase inhibition of 27.78%. In addition, the “increase in ABTS antioxidant activity” value in assay [5] amounted to 30%. The hyaluronidase inhibition in assay [4] is recorded as 14.66%.
Turning to `C/C(=C\COC(=O)C=Cc1ccc([N+](=O)[O-])cc1)CCC[C@H](C)CCC[C@H](C)CCCC(C)C` [Compound 1g, Phytyl 4-nitrocinnamoate], in assay [1] (setting [7]), the IC50 is 64.1 ± 0.67 µM. In assay [6], the collagenase inhibition turned out to be 41.02% and the “fold increase in collagenase inhibition over phytol” value was found to be 1.28 fold. Further, the “Percentage of DPPH scavenging” value in assay [2] amounted to 37.46%. The “Percentage of ABTS scavenging” value in assay [5] amounted to 28.74%. Also, the hyaluronidase inhibition in assay [4] worked out at 23.06%.
For `C/C(=C\COC(=O)c1ccco1)CCC[C@H](C)CCC[C@H](C)CCCC(C)C` [Compound 1h, Phytyl 2-furoate], the IC50 in assay [1] (setting [7]) is more than 100 µM. For the same molecule, the collagenase inhibition in assay [6] is on record as 22.37%. The molecule further displayed an elastase inhibition in assay [3] of 28.3%. In addition, in assay [4], the hyaluronidase inhibition is reported as 36.02% and the “increase in hyaluronidase inhibition over phytol” value is 15–20%.
For the molecule `C/C(=C\COC(=O)c1cccs1)CCC[C@H](C)CCC[C@H](C)CCCC(C)C` [Compound 1i, Phytyl 2-thiophenecarbonoate], the IC50 in assay [1] (setting [7]) is more than 100 µM. In addition, in assay [6], the collagenase inhibition was 41.68% and the “fold increase in collagenase inhibition over phytol” value is given as 1.28 fold. Further, the elastase inhibition in assay [3] came out at 18.19%. The “Percentage of ABTS scavenging” value in assay [5] is 40.58%.
`Cc1c(C)c2c(c(C)c1O)CCC(C)(C(=O)O)O2` (stereo not shown) [Trolox, 6-hydroxy-2,5,7,8-tetramethylchroman-2-carboxylic acid, reference compound]: the “Percentage of DPPH scavenging” value in assay [2] turned out to be 97.54%.

As usually defined, the IC50 is the point on the concentration scale where inhibition reaches its midpoint.
